Results from patent US20110077294A1, “R-(-) / S-(+)-7-[3-N SUBSTITUTED AMINO-2 HYDROXYPROPOXY] FLAVONES” (priority 2006, published 2011).

How the values were obtained:
Type in all cases: in vivo
[1] = test system: C57BL/KsBom-db/db mice; experiment: Serum lipid profile of treated db/db mice (antidyslipidemic activity); conditions: 25 mg/kg
Procedure: (§1) C57BL/KsBom-db/db mice (12-18 weeks old), weighing around 35+g bred in the animal house of CDRI, Lucknow, were used in the present experiments. The mice were housed in groups of 3 to 5 (same sex) in a room controlled for temperature (23±2.0 ° C.) and 12/12 hours light/dark cycle (lights on at 6.00 am). Body weight of each animal was measured daily from day 1 to day 10 of the experiment. All animals had free access to fresh water and normal pellet diet except on the day of the postprandial protocol (day 6) and during the overnight fast before the OGTT on day 10. The animals always had access to water during experimental periods. Blood glucose was checked every morning up till day 10. On day 10 an oral glucose tolerance test (OGTT) was performed after an overnight fasting. Blood glucose was measured at −30.0 min and test compounds were administered. The blood glucose was again measured at 0 min just post treatment and at this juncture glucose solution was given at a dose of 3 gm/kg to all the groups including the vehicle treated group. The blood glucose levels were checked at 30 min, 60 min, 90 min and 120 min post glucose administration. The data was analyzed for its significance on Prism software.

[2] = test system: C57BL/KsBom-db/db mice; experiment: as above; conditions: db/db mice, test dose 25 mg/kg
[3] = test system: C57BL/KsBom-db/db mice; experiment: Oral glucose tolerance test (OGTT) on day 10 in db/db mice; conditions: 25 mg/kg
Procedure: as §1

[4] = test system: C57BL/KsBom-db/db mice; experiment: Blood glucose profile of db/db mice during daily treatment (antihyperglycemic activity)
Procedure: as §1

SMILES: CC(C)(C)NC[C@@H](O)COc1ccc2c(=O)cc(-c3cc(OCc4ccccc4)cc(OCc4ccccc4)c3)oc2c1 [S-002-853 (R), (R)-(−)-7-(3-tert-butylamino-2-hydroxypropoxy)-3′,5′-dibenzyloxyflavone]
- HDL-cholesterol levels compared to sham treated (in words) [1]: no significant difference in the HDL-cholesterol levels
- Serum lipid profile: Cholesterol [1]: 144.0 ± 7.37 mg/dL
- Serum lipid profile: HDL-Chol [1]: 58.0 ± 6.24 mg/dL
- Serum lipid profile: Triglycerides [1]: 132.0 ± 11.5 mg/dL
- serum cholesterol, triglycerides (lipid profile) compared to sham treated (in words) [1]: no significant lowering in either the case of serum cholesterol or triglycerides
- Cholesterol % change compared to control ([1]; vs sham): −3.72%
- HDL-Chol % change compared to control ([1]; vs sham): +8.06%
- Triglycerides % change compared to control ([1]; vs sham): −9.72%
- Comparative antihyperlipidemic activity: HDL-C [2]: +8.06^ns
- Comparative antihyperlipidemic activity: T-Chol [2]: −3.72^ns
- Comparative antihyperlipidemic activity: TG [2]: −9.72^ns
- oral glucose tolerance compared to sham treated (in words) [3]: no difference in oral glucose tolerance curve
- Blood glucose profile, 0 min post glucose load ([3]; OGTT day 10, 0 min): 20.3 ± 4.74 mM
- Blood glucose % change compared to control, 0 min post glucose load ([3]; OGTT day 10, 0 min, vs sham): −3.30%
- Blood glucose profile, 30 min post glucose load ([3]; OGTT day 10, 30 min): 34.3 ± 16.9 mM
- Blood glucose % change compared to control, 30 min post glucose load ([3]; OGTT day 10, 30 min, vs sham): +3.70%
- Blood glucose profile, 60 min post glucose load ([3]; OGTT day 10, 60 min): 25.9 ± 9.75 mM
- Blood glucose % change compared to control, 60 min post glucose load ([3]; OGTT day 10, 60 min, vs sham): 0.00%
- Blood glucose profile, 90 min post glucose load ([3]; OGTT day 10, 90 min): 24.5 ± 9.13 mM
- Blood glucose % change compared to control, 90 min post glucose load ([3]; OGTT day 10, 90 min, vs sham): +17.0%
- Blood glucose profile, 120 min post glucose load ([3]; OGTT day 10, 120 min): 23.0 ± 10.0 mM
- Blood glucose % change compared to control, 120 min post glucose load ([3]; OGTT day 10, 120 min, vs sham): +24.9%
- Blood glucose profile, −30 min post glucose load ([3]; OGTT day 10, −30 min): 13.6 ± 0.46 mM
- Blood glucose % change compared to control, −30 min post glucose load ([3]; OGTT day 10, −30 min, vs sham): 17.4%
- antihyperglycemic and antidyslipidemic/antihyperlipidemic activity (in words) ([4]; 25 mg/kg): insignificant antihyperglycemic or antihyperlipidemic effects
- blood glucose profile compared to sham treated (in words) ([4]; 25 mg/kg): no significant difference in the blood glucose profile between the two groups at any day
- Blood glucose, day 1 post treatment ([4]; 25 mg/kg, day 1): 12.0 ± 2.52 mM
- Blood glucose % change compared to control, day 1 ([4]; 25 mg/kg, day 1, vs sham): +1.1%
- Blood glucose, day 2 post treatment ([4]; 25 mg/kg, day 2): 12.4 ± 2.65 mM
- Blood glucose % change compared to control, day 2 ([4]; 25 mg/kg, day 2, vs sham): −31.9%
- Blood glucose, day 3 post treatment ([4]; 25 mg/kg, day 3): 10.3 ± 1.33 mM
- Blood glucose % change compared to control, day 3 ([4]; 25 mg/kg, day 3, vs sham): −24.1%
- Blood glucose, day 4 post treatment ([4]; 25 mg/kg, day 4): 13.3 ± 4.61 mM
- Blood glucose % change compared to control, day 4 ([4]; 25 mg/kg, day 4, vs sham): −18.1%
- Blood glucose, day 5 post treatment ([4]; 25 mg/kg, day 5): 12.3 ± 4.32 mM
- Blood glucose % change compared to control, day 5 ([4]; 25 mg/kg, day 5, vs sham): −24.0%
- Blood glucose, day 6 post treatment ([4]; 25 mg/kg, day 6): 12.1 ± 3.82 mM
- Blood glucose % change compared to control, day 6 ([4]; 25 mg/kg, day 6, vs sham): −19.8%
- Blood glucose, day 7 post treatment ([4]; 25 mg/kg, day 7): 14.5 ± 5.49 mM
- Blood glucose % change compared to control, day 7 ([4]; 25 mg/kg, day 7, vs sham): −31.9%
- Blood glucose, day 8 post treatment ([4]; 25 mg/kg, day 8): 13.4 ± 4.54 mM
- Blood glucose % change compared to control, day 8 ([4]; 25 mg/kg, day 8, vs sham): −35.4%
- Blood glucose, day 9 post treatment ([4]; 25 mg/kg, day 9): 13.5 ± 4.66 mM
- Blood glucose % change compared to control, day 9 ([4]; 25 mg/kg, day 9, vs sham): −38.3%
- Comparative antihyperglycemic activity: Average Fall ([4]; test dose 25 mg/kg, day given in brackets): 38.3%
